Earlier results as cited in patent US12318376B2, “Compositions of a polyorthoester and an aprotic solvent” (Heron Therapeutics, Inc., priority 2013, dated 2025).

conditions: printed in brackets under the miscibility class

Water Miscibility (amount in brackets)	Compound
(8.3 g/100 ml)	CCOC(C)=O [ethyl acetate]

same assay, conditions: solvent in water, room temperature (20-25° C.)

Water Miscibility	Compound
water miscible	O=C1CCCCCO1 [ester-caprolactone]
water miscible	CCOC(=O)C(C)O (stereo not drawn) [ethyl lactate]
water miscible	C[S+](C)[O-] [dimethyl sulfoxide]
partially miscible	CCOC(C)=O [ethyl acetate]
water miscible	CCN1CCCC1=O [n-ethyl-2-pyrrolidone]
poorly miscible	O=C(OCc1ccccc1)c1ccccc1 [benzyl benzoate]
poorly miscible	O=C1CCCN1C1CCCCC1 [N-cyclohexyl-2-pyrrolidone]
water miscible	CN1CCCC1=O [N-methyl-2-pyrrolidone (NMP), N-methyl-2-pyrrolidone]
water miscible	CC1COC(=O)O1 (stereo not drawn) [4-methyl-1,3-diololan-2-one]
water miscible	COC(=O)C(C)O (stereo not drawn) [methyl lactate]
poorly miscible	CCCCCCCCCCCCCC(=O)OC(C)C [isopropyl myristate]
poorly miscible	CCCCCCCC/C=C\CCCCCCCC(=O)OCC [ethyl oleate]
water miscible	COC(C)=O [methyl acetate]

Compound	Water Miscibility
C1CCOC1 [tetrahydrofuran]	water miscible
